Laboratory results reported in patent US20210403573A1, “METHODS AND PHARMACEUTICAL COMPOSITIONS FOR THE TREATMENT OF FIBROSIS WITH AGENTS CAPABLE OF INHIBITING THE ACTIVATION OF MUCOSAL-ASSOCIATED INVARIANT T (MAIT) CELLS” (INSERM (Institut National de la Santé et de la Recherche …, priority 2017, published 2021).

Molecular target: T1, MR1 (Homo sapiens, UniProt Q95460)
T1 construct: endogenous in cells; host or cells: human hepatic myofibroblasts (HMF), alone or in co-culture with MAIT cells
Experiment: Surface expression of MR1 on hepatic myofibroblasts by flow cytometry
Assay type: cell-based
Conditions: 1 μM, 2 hrs at 37° C., PE-conjugated anti MR1 antibody (26.5)
Experimental: Analysis of Surface Expression of MR1 on Hepatic Myofibroblasts by Flow Cytometry
Hepatic myofibroblast cultures or HMF/MAIT cell co-cultures were exposed to 1 μM Acetyp 6-formylpterin (Ac 6-FP) (Schircks Laboratories, Switzerland) for 2 hrs at 37° C. Cells were then washed, trypsinised, labeled with PE-conjugated anti MR1 antibody (26.5)/isotype control and subjected to flow cytometric analysis.

surface expression of MR1 on hepatic myofibroblasts: enhanced
Substance: Acetyl-6-formyl-pterin [Acetyl-6-formyl-pterin (6FP)]
